How the values were obtained:
hepatocytes = test system: hepatocytes; set-up: method as in PMID 34908893; conditions: mouse vs human hepatocytes; cited from earlier work
[1] = set-up: method as in PMID 34908893; conditions: mice; 90‐day; cited from earlier work
human OATP1B3 = molecular target: T1, human OATP1B3 (Homo sapiens, UniProt Q9NPD5); experiment: Inhibition of S‐3100‐CA uptake by OATP inhibitors, human OATP1B3; assay type: in vitro ADME; conditions: inhibitor at 100 μM
T1 construct: expressed in transfected cells; host or cells: 293FT cells
T1 sequence (Q9NPD5 1-702): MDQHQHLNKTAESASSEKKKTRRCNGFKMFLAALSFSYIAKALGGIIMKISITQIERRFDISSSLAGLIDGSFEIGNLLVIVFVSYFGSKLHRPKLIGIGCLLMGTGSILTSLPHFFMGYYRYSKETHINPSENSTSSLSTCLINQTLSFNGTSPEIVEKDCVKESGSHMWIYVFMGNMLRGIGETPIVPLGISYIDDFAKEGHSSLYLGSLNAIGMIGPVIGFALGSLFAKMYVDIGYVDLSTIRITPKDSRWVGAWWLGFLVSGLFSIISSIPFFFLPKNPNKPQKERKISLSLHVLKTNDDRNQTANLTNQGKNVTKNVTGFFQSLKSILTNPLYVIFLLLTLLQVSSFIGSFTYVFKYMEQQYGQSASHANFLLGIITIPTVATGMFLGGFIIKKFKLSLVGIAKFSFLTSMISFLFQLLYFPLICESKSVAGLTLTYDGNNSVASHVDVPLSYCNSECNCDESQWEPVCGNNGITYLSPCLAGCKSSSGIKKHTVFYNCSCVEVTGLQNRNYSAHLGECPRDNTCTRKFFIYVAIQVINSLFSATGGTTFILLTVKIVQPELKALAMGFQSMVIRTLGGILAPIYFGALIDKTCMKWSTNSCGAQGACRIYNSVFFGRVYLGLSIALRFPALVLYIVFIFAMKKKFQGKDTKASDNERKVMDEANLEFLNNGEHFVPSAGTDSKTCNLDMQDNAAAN
Description: 293FT cells were purchased from Thermo Fisher Scientific, Inc.. The cells were grown in Dulbecco's modified Eagle medium (supplemented with 4.5 g/L glucose and 2 mM L‐glutamine) at 37°C, 5% CO2, and 95% humidity. The cells were passaged 3 times per week by harvesting cells using trypsin and plating at a density of 1.0 × 10^4 cells/cm^2 in a 10 cm cell culture plate for maintenance culture. The 293FT cells were detached using trypsin and re‐seeded at a density of 2.5 × 10^4 cells/cm^2 in BioCoat™ Collagen I 6‐well plates (Corning Inc.) for transfection and then treated with 1.2 μg of plasmid vector and 3.2 μl of Lipofectamine™ 2000 Transfection Reagent (Thermo Fisher Scientific, Inc.) according to the manufacturer's instructions. After a 3‐h treatment, the transfection medium was replaced with a fresh cell culture medium and incubated at 37°C with 95% humidity and 5% CO2 until ready for the assay.
Transport experiments were conducted approximately 24 h post‐transfection. […] From the lysate, 1.0 ml was transferred to a vial containing 10 ml of Emulsifier Scintillator Plus to measure the radioactivity in the LSC. The protein concentration of the cell lysate was also measured using a Pierce™ BCA Protein Assay Kit (Thermo Fisher Scientific, Inc.), which was used to normalize, according to the cell number, the radioactivity in the cell lysate extract. […]

mouse Oatp1a1 = molecular target: T2, mouse Oatp1a1 (Mus musculus, UniProt Q9QXZ6); experiment: in vitro; conditions: 293FT cells transiently transfected with mouse Oatp1a1, probe radiolabeled S‐3100‐CA
T2 sequence (Q9QXZ6 1-670): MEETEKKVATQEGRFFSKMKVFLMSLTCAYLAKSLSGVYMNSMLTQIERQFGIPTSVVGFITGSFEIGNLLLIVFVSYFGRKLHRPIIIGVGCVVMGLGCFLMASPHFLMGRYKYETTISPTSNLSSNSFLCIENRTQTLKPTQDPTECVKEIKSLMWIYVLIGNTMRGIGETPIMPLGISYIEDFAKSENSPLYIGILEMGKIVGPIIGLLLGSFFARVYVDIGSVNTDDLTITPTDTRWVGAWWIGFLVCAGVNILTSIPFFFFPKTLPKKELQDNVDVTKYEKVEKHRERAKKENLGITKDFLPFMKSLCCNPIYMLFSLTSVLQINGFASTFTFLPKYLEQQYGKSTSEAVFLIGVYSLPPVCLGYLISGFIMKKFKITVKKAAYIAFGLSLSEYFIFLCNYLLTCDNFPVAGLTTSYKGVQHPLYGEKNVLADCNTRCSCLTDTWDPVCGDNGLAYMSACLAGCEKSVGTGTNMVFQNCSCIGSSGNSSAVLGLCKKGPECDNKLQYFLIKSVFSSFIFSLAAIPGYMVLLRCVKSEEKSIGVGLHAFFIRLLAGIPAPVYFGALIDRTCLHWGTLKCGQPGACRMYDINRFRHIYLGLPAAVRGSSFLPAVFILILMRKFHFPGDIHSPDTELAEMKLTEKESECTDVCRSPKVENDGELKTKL
Description: Transport experiments were conducted approximately 24 h post‐transfection. The experiments were initiated by aspirating culture medium and addition of pre‐warmed radiolabeled substrate solution (final 1.0% of acetonitrile or 0.9% of ethanol in phosphate‐buffered saline (PBS[−])) to each well. After a 10‐min incubation, cells were washed twice with 1 ml of ice‐cold PBS(−) and lysed with 700 μl of 1.0 M NaOH for 3 h or more at room temperature. The lysate was transferred to a 1.5‐ml tube, and neutralized with 350 μl of 2.0 M HCl and 350 μl of 2.0% sodium dodecyl sulfate (SDS) solution. From the lysate, 1.0 ml was transferred to a vial containing 10 ml of Emulsifier Scintillator Plus to measure the radioactivity in the LSC. The protein concentration of the cell lysate was also measured using a Pierce™ BCA Protein Assay Kit (Thermo Fisher Scientific, Inc.), which was used to normalize, according to the cell number, the radioactivity in the cell lysate extract. The protein assay was performed in duplicate. Each sample type was assayed in triplicate wells, and each run was performed twice. […] Each sample type was assayed in triplicate wells.

For Cn1c(C(F)(F)F)cc(=O)n(-c2cc(Oc3cccnc3OCC(=O)O)c(Cl)cc2F)c1=O [S‐3100‐CA], the “Amount taken up by mouse hepatocytes relative to human hepatocytes” value (hepatocytes) is given as 6–13 times.
For CCOC(=O)COc1ncccc1Oc1cc(-n2c(=O)cc(C(F)(F)F)n(C)c2=O)c(F)cc1Cl [Epyrifenacil, ethyl[(3‐{2‐chloro‐4‐fluoro‐5‐[3‐methyl‐2,6‐dioxo‐4‐(trifluoromethyl)‐3,6‐dihydropyrimidin‐1(2H)‐yl]phenoxy}pyridin‐2‐yl)oxy]acetate], the Hepatocyte injury [1] is given as “produced hepatocyte injury”.
For CO[C@H]1/C=C/O[C@@]2(C)Oc3c(C)c(O)c4c(O)c(c(/C=N/N5CCN(C)CC5)c(O)c4c3C2=O)NC(=O)/C(C)=C\C=C\[C@H](C)[C@H](O)[C@@H](C)[C@@H](O)[C@@H](C)[C@H](OC(C)=O)[C@@H]1C [RIF, Rifampicin], the “Uptake of S‐3100‐CA, % of that by vehicle‐treated cells” value (human OATP1B3) was “less than 40%” and the inhibition at 10 min, 10 µM (mouse Oatp1a1) was > 50%.
